One experiment has as its target ASK1 (Homo sapiens (Human), UniProt Q99683). Put plainly: ASK1 Kinase Assay (Promega ASK1 Kinase Enzyme System, ADP-Glo). The format is biochemical. Particulars: enzyme 50 nM, ATP 10 μM. As for the experimental part:
The ASK1 enzymatic assay was run following Promega ASK1 Kinase Enzyme System (Cat #V3881). The kit provides the protocol, enzymes and all reagents necessary to run an assay. Firstly, the compounds, enzyme, substrate and ATP were diluted in provided assay buffer. The final concentration of the enzyme was 50 nM, substrate (Myelin basic protein) 1 μg/ml and ATP 10 μM. The compound and the enzyme were pre-incubated in a 384 well white solid bottom plate (Greiner, Cat#784075) for 10 minutes. After incubation, the substrate and ATP were added and incubated for further 60 minutes. After 60 minutes, ADP-Glo™ was added and plate was incubated for another 40 minutes. After 40 minutes, Kinase Detection Reagent was added and the plate was incubated for 45 minutes. After 45 minutes, plate was read on Perkin Elmer EnVision using luminescence read (0.5 seconds/well).

In experiment [1] the test system is LPS-induced TNFalpha in Human PBMCs. The experiment in a line: Inhibition of LPS-induced TNFalpha in Human PBMCs. In kind it is cell-based. Conditions: PBMC, 100 ng/ml LPS, 6 hr, read-out: TNFa Inhibition IC50. The protocol: Cryopreserved human PBMCs were obtained from AllCells (cat# PB003F). After thawing/dilution protocols using RPMI medium supplemented with 5% FBS (heat inactivated), 100 ul/well of 1×10^6 cells/ml were plated into 96 well tissue culture plates (Corning). Cells were then pre-incubated for 1 hr at 37° C. in humidified 5% CO2 and 95% air with test compounds diluted in DMSO (final DMSO concentration 0.3%). Each compound was tested at 10 concentrations in duplicate wells. After the pre-incubation, 100 ng/ml LPS (E. Coli; Sigma) in RPMI media with 5% FBS was added for a 6 hr incubation at 37° C. in humidified 5% CO2 and 95% air. Controls on each plate included cells and LPS only, cells and media only (no LPS), and media only. After the 6 hr incubation, plates were centrifuged and the supernatants transferred to a new plate and frozen for subsequent TNFalpha analysis. Human TNFalpha was analyzed by ELISA according to the manufacturer's instructions (BD Sciences, BD OptEIA™ Cat#550610) and analyzed on a SpectraMax M series (Molecular Devices) microplate reader at OD 450 nm. IC50s were calculated using XLFit4 curve fitting software (IDBS) and a 4-parameter one-site sigmoid dose response fit.

Some results are limits rather than exact numbers.

Sequence of ASK1 (Q99683 649-946 limits assumed): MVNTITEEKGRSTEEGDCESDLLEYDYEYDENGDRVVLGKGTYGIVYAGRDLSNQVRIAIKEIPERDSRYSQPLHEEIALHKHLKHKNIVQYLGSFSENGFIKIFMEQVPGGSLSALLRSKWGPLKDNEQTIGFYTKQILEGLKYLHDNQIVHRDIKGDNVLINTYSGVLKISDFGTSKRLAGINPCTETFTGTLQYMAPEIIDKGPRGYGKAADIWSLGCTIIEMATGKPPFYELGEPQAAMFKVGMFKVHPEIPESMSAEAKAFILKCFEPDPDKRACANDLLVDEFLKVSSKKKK

With `CN(C)C(=O)c1ccc2c(c1)CN(c1cccc(-c3nncn3C3CC3)n1)C2=O` [Compound 2, 2-(6-(4-Cyclopropyl-4H-1,2,4-triazol-3-yl)pyridin-2-yl)-N,N-dimethyl-1-oxoisoindoline-5-carboxamide], the IC50 at ASK1 was below 200 nM; in experiment [1] it was 2000 to 10000 nM. For `O=C(c1ccc2c(c1)CN(c1cccc(-c3nncn3C3CC3)n1)C2=O)N1CCOCC1` [Compound 7, 2-(6-(4-cyclopropyl-4H-1,2,4-triazol-3-yl)pyridin-2-yl)-5-(morpholine-4-carbonyl)isoindolin-1-one], the IC50 against ASK1 is below 200 nM; in experiment [1], above 10 nM.

In the case of `CN1CCN(C(=O)c2ccc3c(c2)CN(c2cccc(-c4nncn4C4CC4)n2)C3=O)CC1` [Compound 10, 2-(6-(4-cyclopropyl-4H-1,2,4-triazol-3-yl)pyridin-2-yl)-5-(4-methylpiperazine-1-carbonyl)isoindolin-1-one], the IC50 against ASK1 was below 200 nM; in experiment [1] it was 2000 to 10000 nM. In the case of `O=C(c1ccc2c(c1)CN(c1cccc(-c3nncn3C3CC3)n1)C2=O)N1CCCCC1` [Compound 11, 2-(6-(4-cyclopropyl-4H-1,2,4-triazol-3-yl)pyridin-2-yl)-5-(piperidine-1-carbonyl)isoindolin-1-one], the results for the IC50 (against ASK1; in experiment [1]) were below 200 nM and 2000 to 10000 nM, respectively. In the same order, the values of `O=C(c1ccc2c(c1)CN(c1cccc(-c3nncn3C3CC3)n1)C2=O)N1CCC(O)CC1` [Compound 12, 2-(6-(4-cyclopropyl-4H-1,2,4-triazol-3-yl)pyridin-2-yl)-5-(4-hydroxypiperidine-1-carbonyl)isoindolin-1-one] are below 200 nM and above 10 nM.

`CC1(O)CCN(C(=O)c2ccc3c(c2)CN(c2cccc(-c4nncn4C4CC4)n2)C3=O)CC1` [Compound 13, 2-(6-(4-cyclopropyl-4H-1,2,4-triazol-3-yl)pyridin-2-yl)-5-(4-hydroxy-4-methylpiperidine-1-carbonyl)isoindolin-1-one]: the IC50 at ASK1 was below 200 nM; in experiment [1], above 10 nM. Consider `COC1CCN(C(=O)c2ccc3c(c2)CN(c2cccc(-c4nncn4C4CC4)n2)C3=O)CC1` [Compound 14, 2-(6-(4-cyclopropyl-4H-1,2,4-triazol-3-yl)pyridin-2-yl)-5-(4-methoxypiperidine-1-carbonyl)isoindolin-1-one], for which the IC50 at ASK1 was below 200 nM; in experiment [1], 2000 to 10000 nM. In the same order, the values of `CN(C)C1CCN(C(=O)c2ccc3c(c2)CN(c2cccc(-c4nncn4C4CC4)n2)C3=O)CC1` [Compound 15, 2-(6-(4-cyclopropyl-4H-1,2,4-triazol-3-yl)pyridin-2-yl)-5-(4-(dimethylamino)piperidine-1-carbonyl)isoindolin-1-one] are below 200 nM and 2000 to 10000 nM. For `CC(=O)N1CCN(C(=O)c2ccc3c(c2)CN(c2cccc(-c4nncn4C4CC4)n2)C3=O)CC1` [Compound 16, 5-(4-acetylpiperazine-1-carbonyl)-2-(6-(4-cyclopropyl-4H-1,2,4-triazol-3-yl)pyridin-2-yl)isoindolin-1-one], in that order: below 200 nM and above 10 nM. For `CC(=O)NC1CCN(C(=O)c2ccc3c(c2)CN(c2cccc(-c4nncn4C4CC4)n2)C3=O)CC1` [Compound 17, N-(1-(2-(6-(4-cyclopropyl-4H-1,2,4-triazol-3-yl)pyridin-2-yl)-1-oxoisoindoline-5-carbonyl)piperidin-4-yl)acetamide], in that order: below 200 nM and above 10 nM.

Take `O=C1c2cc(-c3cccnc3)ccc2CN1c1cccc(-c2nncn2C2CC2)n1` [Compound 40, 2-(6-(4-cyclopropyl-4H-1,2,4-triazol-3-yl)pyridin-2-yl)-6-(pyridin-3-yl)isoindolin-1-one]: the IC50 in experiment [1] is below 2000 nM. `Cc1ccncc1-c1ccc2c(c1)C(=O)N(c1cccc(-c3nncn3C3CC3)n1)C2` [Compound 41, 2-(6-(4-cyclopropyl-4H-1,2,4-triazol-3-yl)pyridin-2-yl)-6-(4-methylpyridin-3-yl)isoindolin-1-one]: the IC50 in experiment [1] is below 2000 nM.

As to `O=C1c2cc(-c3cncnc3)ccc2CN1c1cccc(-c2nncn2C2CC2)n1` [Compound 43, 2-(6-(4-cyclopropyl-4H-1,2,4-triazol-3-yl)pyridin-2-yl)-6-(pyrimidin-5-yl)isooindolin-1-one], the IC50 against ASK1 is below 200 nM; in experiment [1], 2000 to 10000 nM. For `Cc1ncc(-c2ccc3c(c2)C(=O)N(c2cccc(-c4nncn4C4CC4)n2)C3)cn1` [Compound 44, 2-(6-(4-cyclopropyl-4H-1,2,4-triazol-3-yl)pyridin-2-yl)-6-(2-methylpyrimidin-5-yl)isoindolin-1-one], in that order: below 200 nM and 2000 to 10000 nM. As to `O=C1c2cc(-c3ccc(C4CC4)nc3)ccc2CN1c1cccc(-c2nncn2C2CC2)n1` [Compound 46, 2-(6-(4-cyclopropyl-4H-1,2,4-triazol-3-yl)pyridin-2-yl)-6-(6-cyclopropylpyridin-3-yl)isoindolin-1-one], the IC50 in experiment [1] was below 2000 nM. For the compound `O=C1c2cc(-c3cnc(C4CC4)cn3)ccc2CN1c1cccc(-c2nncn2C2CC2)n1` [Compound 60, 2-(6-(4-cyclopropyl-4H-1,2,4-triazol-3-yl)pyridin-2-yl)-6-(5-cyclopropylpyrazin-2-yll)isoindolin-1-one], the IC50 in experiment [1] was above 10 nM. Take `COc1cc2c(cc1-c1cccnc1)C(=O)N(c1cccc(-c3nncn3C3CC3)n1)C2` [Compound 66, 2-(6-(4-cyclopropyl-4H-1,2,4-triazol-3-yl)pyridin-2-yl)-5-methoxy-6-(pyridin-3-yl)isoindolin-1-one]: the IC50 in experiment [1] was below 2000 nM. `CN(C)C(=O)c1ccc2c(c1)C(=O)N(c1cccc(-c3nncn3C3CC3)n1)C2` [Compound 74, 2-(6-(4-cyclopropyl-4H-1,2,4-triazol-3-yl)pyridin-2-yl)-N,N-dimethyl-3-oxoisoindoline-5-carboxamide] yielded an IC50 at ASK1 of 200 to 1000 nM. On the same count and under the same terms, next, `O=C1c2ccccc2CN1c1cccc(-c2nnc3n2CCC3)n1` [Compound 76, 2-(6-(6,7-dihydro-5H-pyrrolo[2,1-c][1,2,4]triazol-3-yl)pyridin-2-yl)isoindolin-1-one]: 200 to 1000 nM; `O=C1c2ccccc2CN1c1cccc(-c2nnc3n2CCCC3)n1` [Compound 77, 2-(6-(5,6,7,8-Tetrahydro-[1,2,4]triazolo[4,3-a]pyridin-3-yl)pyridin-2-yl)isoindolin-1-one]: 1000 to 10000 nM. At ASK1, `O=C1c2ccccc2CN1c1cccc(-c2nnc3n2[C@@H](CO)CC3)n1` [Compound 79, (R)-2-(6-(5-(hydroxymethyl)-6,7-dihydro-5H-pyrrolo[2,1-c][1,2,4]triazol-3-yl)pyridin-2-yl)isoindolin-1-one] came in with an IC50 below 200 nM. As for `O=C1c2ccccc2CN1c1cccc(-c2nnc3n2[C@H](CO)CC3)n1` [Compound 81, (S)-2-(6-(5-(Hydroxymethyl)-6,7-dihydro-5H-pyrrolo[2,1-c][1,2,4]triazol-3-yl)pyridin-2-yl)isoindolin-1-one], at ASK1, the IC50 is 1000 to 10000 nM. Turning to `O=C1c2ccccc2CN1c1cccc(-n2nncc2C2CC2)n1` [Compound 83, 2-(6-(5-cyclopropyl-1H-1,2,3-triazol-1-yl)pyridin-2-yl)isoindolin-1-one], the IC50 against ASK1 is below 200 nM. In turn, `O=C1c2ccccc2CN1c1cccc(-n2ccnn2)n1` [Compound 84, 2-(6-(1H-1,2,3-triazol-1-yl)pyridin-2-yl)isoindolin-1-one] gave an IC50 on ASK1 of 200 to 1000 nM.

Take `CC(C)n1cnnc1-c1cccc(N2Cc3ccc(-c4cccnc4)cc3C2=O)n1` [Compound 85, 2-(6-(4-isopropyl-4H-1,2,4-triazol-3-yl)pyridin-2-yl)-6-(pyridin-3-yl)isoindolin-1-one]: the IC50 against ASK1 was below 200 nM. The same measure, in the same setting: for `O=C1c2ccccc2CN1c1nccc(-c2nncn2C2CC2)n1` [Compound 86, 2-(4-(4-cyclopropyl-4H-1,2,4-triazol-3-yl)pyrimidin-2-yl)isoindolin-1-one] the value was 1000 to 10000 nM. As to `O=c1c2ccccc2[nH]n1-c1cccc(-c2nncn2C2CC2)n1` [Compound 87, 2-(6-(4-cyclopropyl-4H-1,2,4-triazol-3-yl)pyridin-2-yl)-1,2-dihydro-3H-indazol-3-one], the concentration for half-maximal inhibition (IC50) against ASK1 lay in the range of 1000 to 10000 nM. Compound `Cn1c2ccccc2c(=O)n1-c1cccc(-c2nncn2C2CC2)n1` [Compound 88, 2-(6-(4-cyclopropyl-4H-1,2,4-triazol-3-yl)pyridin-2-yl)-1-methyl-1,2-dihydro-3H-indazol-3-one] had an IC50 on ASK1 of 1000 to 10000 nM.

Turning to `O=c1c2ccccc2sn1-c1cccc(-c2nncn2C2CC2)n1` [Compound 89, 2-(6-(4-cyclopropyl-4H-1,2,4-triazol-3-yl)pyridin-2-yl)benzo[d]isothiazol-3(2H)-one], the IC50 against ASK1 lay within 1000 to 10000 nM.

The record behind these values is patent publication US10150755B2, “ASK1 inhibitor compounds and uses thereof” (Seal Rock Therapeutics, Inc., priority 2017, dated 2018).
